System: blood platelets
Experiment: Inhibition of platelet aggregation
Assay type: cell-based

| Molecule | IC50 |
| --- | --- |
| CCCCN(CC(=O)N[C@H](CCc1ccccc1)CC(=O)O)C(=O)CCCC1CCNCC1 [(2), Pib-N-(n-butyl)Gly-3(R)-(2-phenethyl)-β-alanine] | 0.077 µM |
| O=C(O)C[C@H](CCc1c[nH]c2ccccc12)NC(=O)CNC(=O)CCCC1CCNCC1 [(6), Pib-Gly-3(S)-[2-(indol-3-yl)ethyl]β-alanine] | 31 µM |
| CC(CCc1ccccc1)(CC(=O)O)NC(=O)CNC(=O)CCCC1CCNCC1 (centres unmarked) [(7)] | > 300 µM |
| O=C(O)CC(CCO)NC(=O)CNC(=O)CCCC1CCNCC1 (stereo not drawn) [(8), Pib-Gly-3-[2-(hydroxy)ethyl]β-alanine] | > 1 µM |
| O=C(O)CC(COc1ccccc1)NC(=O)CNC(=O)CCCC1CCNCC1 (stereo not drawn) [(10), Pib-Gly-3-(phenoxymethyl)β-alanine] | 2.1 µM |
| O=C(O)CC(CCc1cncn1Cc1ccccc1)NC(=O)CNC(=O)CCCC1CCNCC1 (stereo not drawn) [(12), Pib-Gly-3-[2-(3-benzylimidazol-4-yl)ethyl]β-alanine] | 1.5 µM |

More lines, now with the values ahead:

| IC50 | Molecule |
| --- | --- |
| 0.25 µM | O=C(O)C[C@@H](CCc1ccccc1)NC(=O)CN(Cc1ccccc1)C(=O)CCCC1CCNCC1 [(1), Pib-N-(benzyl)Gly-3(R)-(2-phenethyl)-β-alanine] |
| 0.099 µM | CC(C)N(C(=O)CCCC1CCNCC1)[C@H](CCc1ccccc1)CC(=O)O [(3), Pib-N-(i-Propyl)-3(R)-(2-phenethyl)-β-alanine] |
| 0.087 µM | O=C(O)C[C@@H](CCc1ccccc1)NC(=O)CN(CCc1ccccc1)C(=O)CCCC1CCNCC1 [(4), Pib-N-(2-phenethyl)Gly-3(R)-(2-phenethyl)-β-alanine] |
| > 1 µM | CCOC(=O)C[C@H](CCc1c[nH]c2ccccc12)NC(=O)CNC(=O)CCCC1CCNCC1 [(5), Pib-Gly-3(S)-[2-(indol-3-yl)ethyl]-β-alanine ethyl ester] |
| 3.7 µM | O=C(O)CC(CCCCO)NC(=O)CNC(=O)CCCC1CCNCC1 (stereo not drawn) [(9), Pib-Gly-3-[4-(hydroxy)butyl],β-alanine] |
| 2.7 µM | O=C(O)CC(CCc1c[nH]cn1)NC(=O)CNC(=O)CCCC1CCNCC1 (stereo not drawn) [(11), Pib-Gly-3-[2-(imidazol-4-yl)ethyl]β-alanine] |
| 1.1 µM | Cc1[nH]c2ccccc2c1CCC(CC(=O)O)NC(=O)CNC(=O)CCCC1CCNCC1 (stereo not drawn) [(14), Pib-Gly-3-[2-(2-methylindol-3-yl)ethyl]β-alanine] |
| 4 µM | Pib-Gly-3-(3-carboxypropyl)β-alanine [(13)] |
